As usually defined, the IC50 is the midpoint of a concentration-inhibition curve.

Experiment [1] addresses T1, EGFR^T790M/L858R (Homo sapiens, UniProt P00533, L858R/T790M).
T1 construct: purchased Millipore
Kind of experiment: kinase inhibitory activity test (ELISA), EGFR^T790M/L858R. It is filed as biochemical. The following applies: ELISA, ATP 5 μM, 1 hour at 37° C. The method in brief: (§1)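 ELISA on poly(Glu,Tyr)4:1-coated plates; kinase reaction with 5 μM ATP (final) in 50 mM HEPES pH 7.4, 50 mM MgCl2, 5 mM MnCl2, 0.2 mM Na3VO4, 1 mM DTT, 1 h at 37° C. Phosphotyrosine detected via PY99/HRP and OPD at 490 nm; IC50 by four-parameter fit.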
(In general: In an ELISA, binding on a coated surface is turned into a signal by an enzyme label.)

Experiment [2] concerns the target T2, EGFR^wt (Homo sapiens, UniProt P00533).
T2 construct: purchased Millipore
Kind of experiment: kinase inhibitory activity test (ELISA), EGFR^WT. It is filed as biochemical. The settings on record: ATP 5 μM, 1 hour at 37° C. In short, it runs like this:
as §1

Experiment [3] relates to human non-small cell lung cancer NCI-H1975 cell line. Kind of experiment: SRB proliferation assay, NCI-H1975 cells. The experiment is classed as cell-based. The following applies: NCI-H1975, SRB, 72 h, read-out: IC50 NCI-H1975. The method in brief: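 NCI-H1975 cells in log phase were allowed to adhere for 24 h, then treated with compound in triplicate for 72 h. Cells were TCA-fixed and SRB-stained, with OD read at 515 nm; IC50 derived from growth inhibition versus DMSO control.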

For experiment [4], the system named is human epidermal carcinoma A431 cell line. Kind of experiment: SRB proliferation assay, A431 cells. It is filed as cell-based. The following applies: A-431, SRB, 72 h, read-out: IC50 A431. The method in brief:
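A431 cells in log phase are allowed to adhere for 24 h, then exposed to compound for 72 h in triplicate alongside DMSO controls. Cells are fixed with cold 10% TCA, stained with SRB, dye is solubilised in 10 mM Tris pH 10.5, and OD is read at 515 nm.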

The target of experiment [5] is T3, IGF-1R (Homo sapiens, UniProt P08069).
T3 construct: purchased Millipore
T3 sequence (P08069 31-1367): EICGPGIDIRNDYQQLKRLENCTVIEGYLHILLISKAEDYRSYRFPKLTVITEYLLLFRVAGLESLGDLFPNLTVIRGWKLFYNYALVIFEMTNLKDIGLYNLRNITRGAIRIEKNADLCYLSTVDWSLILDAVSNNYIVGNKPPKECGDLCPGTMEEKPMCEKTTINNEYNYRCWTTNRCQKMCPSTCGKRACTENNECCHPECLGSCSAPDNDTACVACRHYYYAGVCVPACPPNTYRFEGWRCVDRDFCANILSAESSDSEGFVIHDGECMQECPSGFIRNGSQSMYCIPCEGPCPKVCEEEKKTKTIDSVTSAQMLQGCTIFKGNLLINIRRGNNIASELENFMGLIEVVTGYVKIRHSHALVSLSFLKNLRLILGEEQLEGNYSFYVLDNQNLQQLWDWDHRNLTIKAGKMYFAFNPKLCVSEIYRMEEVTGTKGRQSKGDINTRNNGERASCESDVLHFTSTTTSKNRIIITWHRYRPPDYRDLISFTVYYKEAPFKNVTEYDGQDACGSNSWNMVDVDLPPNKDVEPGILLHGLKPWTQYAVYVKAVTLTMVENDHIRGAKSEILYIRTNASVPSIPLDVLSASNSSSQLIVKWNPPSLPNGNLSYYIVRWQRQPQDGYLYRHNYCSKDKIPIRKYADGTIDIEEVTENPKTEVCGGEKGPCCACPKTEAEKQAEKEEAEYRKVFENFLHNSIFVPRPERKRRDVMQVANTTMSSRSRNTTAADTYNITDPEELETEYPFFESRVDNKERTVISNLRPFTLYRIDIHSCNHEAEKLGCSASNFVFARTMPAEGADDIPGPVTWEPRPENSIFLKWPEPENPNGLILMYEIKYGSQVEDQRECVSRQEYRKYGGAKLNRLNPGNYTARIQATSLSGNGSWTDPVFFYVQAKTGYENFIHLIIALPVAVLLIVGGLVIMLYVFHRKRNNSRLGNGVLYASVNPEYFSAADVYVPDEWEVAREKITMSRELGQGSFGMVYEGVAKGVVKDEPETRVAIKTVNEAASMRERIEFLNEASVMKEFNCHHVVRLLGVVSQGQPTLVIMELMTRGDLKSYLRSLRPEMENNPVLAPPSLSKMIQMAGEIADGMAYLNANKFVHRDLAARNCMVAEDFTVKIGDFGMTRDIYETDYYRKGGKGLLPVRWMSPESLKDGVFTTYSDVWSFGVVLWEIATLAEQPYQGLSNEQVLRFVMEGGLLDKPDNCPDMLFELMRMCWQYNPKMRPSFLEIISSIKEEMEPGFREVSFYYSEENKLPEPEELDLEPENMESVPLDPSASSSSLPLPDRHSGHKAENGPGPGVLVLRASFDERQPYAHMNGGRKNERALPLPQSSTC
Kind of experiment: kinase inhibitory activity test (ELISA), IGF-1R. The experiment is classed as biochemical. The settings on record: ATP 5 μM, 1 hour at 37° C. The method in brief:
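Poly(Glu,Tyr)4:1-coated plates; kinase reacted 1 h at 37 °C with 5 μM ATP (final) in HEPES pH 7.4 buffer with Mg2+/Mn2+. Phosphotyrosine detected by PY99 and HRP anti-mouse IgG with OPD at 490 nm; IC50 from four-parameter fit.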

T1 sequence (P00533 25-1210 T790M/L858R): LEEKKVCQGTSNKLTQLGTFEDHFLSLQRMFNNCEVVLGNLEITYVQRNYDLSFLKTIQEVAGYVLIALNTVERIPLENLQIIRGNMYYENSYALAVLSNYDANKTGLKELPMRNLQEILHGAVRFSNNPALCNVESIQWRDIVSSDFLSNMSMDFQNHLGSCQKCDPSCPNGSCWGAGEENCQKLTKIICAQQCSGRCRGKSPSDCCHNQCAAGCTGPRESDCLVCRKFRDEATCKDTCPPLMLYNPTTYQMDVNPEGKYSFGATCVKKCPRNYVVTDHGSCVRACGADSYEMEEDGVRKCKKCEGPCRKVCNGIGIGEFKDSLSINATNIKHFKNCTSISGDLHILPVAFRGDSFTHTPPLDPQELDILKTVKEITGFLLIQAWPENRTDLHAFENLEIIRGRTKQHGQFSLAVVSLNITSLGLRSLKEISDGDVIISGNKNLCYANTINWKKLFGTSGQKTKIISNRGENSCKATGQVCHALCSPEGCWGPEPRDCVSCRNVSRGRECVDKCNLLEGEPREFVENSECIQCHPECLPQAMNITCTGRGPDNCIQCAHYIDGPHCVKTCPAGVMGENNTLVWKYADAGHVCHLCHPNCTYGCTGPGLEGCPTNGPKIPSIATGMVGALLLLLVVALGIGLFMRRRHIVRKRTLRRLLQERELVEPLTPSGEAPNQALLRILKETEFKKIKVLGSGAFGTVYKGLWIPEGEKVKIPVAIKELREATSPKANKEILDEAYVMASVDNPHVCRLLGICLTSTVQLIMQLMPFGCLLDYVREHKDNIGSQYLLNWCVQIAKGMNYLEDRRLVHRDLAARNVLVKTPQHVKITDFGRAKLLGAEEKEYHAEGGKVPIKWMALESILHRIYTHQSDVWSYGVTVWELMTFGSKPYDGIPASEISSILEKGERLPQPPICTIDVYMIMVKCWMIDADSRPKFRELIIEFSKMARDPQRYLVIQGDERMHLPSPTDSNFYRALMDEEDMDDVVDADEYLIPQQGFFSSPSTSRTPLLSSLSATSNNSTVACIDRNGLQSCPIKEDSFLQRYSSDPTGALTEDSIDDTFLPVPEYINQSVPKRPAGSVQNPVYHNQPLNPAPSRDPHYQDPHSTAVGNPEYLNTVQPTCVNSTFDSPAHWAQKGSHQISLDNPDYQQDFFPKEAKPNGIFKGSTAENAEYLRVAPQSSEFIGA
T2 sequence (P00533 25-1210): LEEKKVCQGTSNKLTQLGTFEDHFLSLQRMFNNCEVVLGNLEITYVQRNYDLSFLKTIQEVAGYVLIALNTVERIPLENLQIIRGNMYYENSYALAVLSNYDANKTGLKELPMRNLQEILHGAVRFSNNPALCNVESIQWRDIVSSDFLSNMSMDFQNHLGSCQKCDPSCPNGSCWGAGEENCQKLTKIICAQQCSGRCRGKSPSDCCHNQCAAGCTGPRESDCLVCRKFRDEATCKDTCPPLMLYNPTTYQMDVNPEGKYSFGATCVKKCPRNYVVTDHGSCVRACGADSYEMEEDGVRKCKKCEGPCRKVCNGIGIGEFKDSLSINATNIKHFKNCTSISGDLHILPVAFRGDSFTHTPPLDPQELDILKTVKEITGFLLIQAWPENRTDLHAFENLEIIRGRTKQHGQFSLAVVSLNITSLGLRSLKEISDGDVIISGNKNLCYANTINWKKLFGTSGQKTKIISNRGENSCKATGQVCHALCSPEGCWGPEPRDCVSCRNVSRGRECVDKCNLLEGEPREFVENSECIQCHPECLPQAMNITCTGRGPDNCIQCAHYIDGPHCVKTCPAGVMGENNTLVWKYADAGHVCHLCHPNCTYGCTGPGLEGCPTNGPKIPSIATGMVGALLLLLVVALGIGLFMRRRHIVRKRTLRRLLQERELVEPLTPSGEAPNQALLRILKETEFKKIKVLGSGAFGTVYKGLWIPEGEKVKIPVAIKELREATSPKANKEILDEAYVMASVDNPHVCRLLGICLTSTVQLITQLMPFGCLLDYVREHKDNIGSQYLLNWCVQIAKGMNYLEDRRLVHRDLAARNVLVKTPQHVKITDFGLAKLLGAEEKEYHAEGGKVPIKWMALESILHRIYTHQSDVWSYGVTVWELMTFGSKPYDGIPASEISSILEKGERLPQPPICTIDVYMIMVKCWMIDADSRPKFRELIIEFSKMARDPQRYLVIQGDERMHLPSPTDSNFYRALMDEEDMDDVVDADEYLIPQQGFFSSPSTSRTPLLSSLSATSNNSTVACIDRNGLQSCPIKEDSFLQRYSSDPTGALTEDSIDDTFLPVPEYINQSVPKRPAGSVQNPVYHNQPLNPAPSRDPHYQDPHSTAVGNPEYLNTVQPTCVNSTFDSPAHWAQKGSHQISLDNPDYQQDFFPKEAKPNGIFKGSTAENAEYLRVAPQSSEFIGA

On to `CC(C)Oc1ccc(NC(=O)/C=C/CN(C)C)cc1Nc1ncc(Cl)c(Nc2ccc3ccccc3c2)n1` [CCB145384, (E)-N-((3-((5-chloro-4-((naphthalen-2-yl)amino))pyrimidin-2-yl)amino)-4-isopropoxyphenyl)-4-(dimethylamino)-2-butenamide], for which the IC50 came out at 266 nM in experiment [1]; 2680 nM in experiment [2]; 1970 nM in experiment [3]; 671 nM in experiment [4]; 272 nM in experiment [5].
Taken in the same sequence, the figures for `CC(C)Oc1ccc(NC(=O)/C=C/CN(C)C)cc1Nc1ncc(Br)c(Nc2ccc3ccccc3c2)n1` [CCB145385, (E)-N-((3-((5-bromo-4-((naphthalen-2-yl)amino))pyrimidin-2-yl)amino)-4-isopropoxyphenyl)-4-(dimethylamino)-2-butenamide] were 177 nM, 3620 nM, 5740 nM, 7580 nM and 316 nM.

The values are drawn from US10059694B2, “2-aminopyrimidine compound and pharmaceutical composition and use thereof” (Shanghai Institute of Materia Medica, Chinese Academy of …, priority 2014, dated 2018).
